Patent publication US7781423B2, “Compounds to promote regeneration of bone marrow” (priority 2007, dated 2010)

Experiments:
[1] = tested on: transplanted bone marrow cells; assay: Bone marrow regeneration from transplanted bone marrow cells after lethal irradiation (BM cells, CFU-GM); format: in vivo, C57B1 mice; conditions: for CFU-GM per femur / CFU-GM/10^5 nucleated BM cells: CCompound1 4.5 mg per kg i.p. daily, day -3 to day +3
Procedure: C57B1 female (10-14 weeks old) mice received sublethal (250 cGy) whole body irradiation from a ^137Cesium source (day 0). Starting three days before irradiation, animals received daily 4.5 mg per kg of CCompound1 via intraperitoneal injection; this treatment also was provided on day 0 and once daily for three days subsequent to irradiation. In another group, mice were injected only with physiological saline. The subsequent procedure has been reported in Vas, V., Fajka-Boja, R., Ion, G. A., Dudics, V., Monostori, E. and Uher, F., “Biphasic effect of recombinant Galectin-1 on the growth and death of early hematopoietic cells,” Stem Cells, 23, 279-287 (2005). Briefly, bone marrow was flushed from the femurs with Iscove's modified Dulbecco's medium (Gibco BRL, Gaithersburg, Md., USA), and after standard erythrocyte lysis, nucleated cells were counted using a hemocytometer. Samples were taken on days 0, 1, 3, and 10. To measure the formation of the granulocyte-macrophage colony-forming units (CFU-GM), a semisolid colony-forming cell assay was used. Nucleated bone marrow cells (isolated on the days as indicated above) were plated in 35-mm Petri dishes (Costar, Cambridge, Mass., USA) in Iscove's modified Dulbecco's medium supplemented with 1% methylcellulose, 30% horse serum (Gibco), 10% WEHI-3B conditioned medium as a source of growth factors, 4 mM L-glutamine, 0.25 mM a-thioglycerol (Gibco), 1% deionized bovine serum albumine (Sigma), and antibiotics (Gibco). Cells were cultured at 37° C. in 5% CO2/95% air atmosphere and colonies were counted on day 7 in the same dish. Colonies containing at least 50 cells were counted which is a generally accepted value in the literature. Each value represents the mean±st. dev. of 9 samples (3 parallel dishes from each animal).
In this experiment the goal was to determine if CCompound1 can enhance expansion of transplanted bone marrow cells infused after applying a lethal dose of whole body irradiation (which reduces the number of bone marrow cells by more than 90%). C57B1 female mice (10-14 weeks old) were subjected to 900 cGy whole body irradiation from a ^137Cesium source which was followed within 6 hours by infusion of one million donor nucleated bone marrow cells by tail vein injection. Starting 3 days before irradiation, animals received daily 4.5 mg per kg of CCompound1 via intraperitoneal injection; this treatment also was provided on day 0 and once daily for the subsequent 3 days after irradiation. In another group, mice were injected only with physiological saline.
Bone marrow cells were collected on day 0 from non-irradiated animals as well as on days 6, 14, 28 and 42 after irradiation and bone marrow transplantation. Nucleated bone marrow cells were quantified and CFU-GM assay was performed as described in Example 3 while blood profiling was performed as described in Example 1. For each group, on the indicated days bone marrow and blood samples were collected from 3 animals. Each value presented in Table 5 and Table 6 represents the mean±st. dev. of 3 samples (derived from 3 animals).

[2] = Solubility in water
[3] = tested on: granulocyte-macrophage colony-forming units (CFU-GM); assay: Recovery of bone marrow function after sublethal whole body irradiation (nucleated BM cells, CFU-GM assay); format: in vivo, C57B1 mice; conditions: for CFU-GM per femur / CFU-GM/10^5 nucleated BM cells: CCompound1 4.5 mg per kg i.p. daily, day -3 to day +3; for CFU-GM/10^5 nucleated BM cells: colonies counted on day 7 of culture
Procedure: This experiment served to determine if CCompound1 was able to promote regeneration of partially ablated bone marrow from endogenous stem cells i.e. promote restoration of the capacity of bone marrow to produce blood cells. The CFU-GM assay was performed because the number of CFU-GM per femur is a good indicator of bone marrow regeneration. Ballestrero, A., Ferrando, F., Garuti, A., Basta, P., Gonella, R., Stura, P., Mela, G. S., Sessarego, M, Gobbi, M. and Patrone, F., “Comparative effects of three cytokine regimens after high-dose cyclophosphamide: Granulocyte colony-stimulating factor, granulocyte-macrophage colony-stimulating factor (GM-CSF), and sequential interleukin-3 and GM-CSF,” J. Clin. Oncol., 17, 1296-1303 (1999).
C57B1 female (10-14 weeks old) mice received sublethal (250 cGy) whole body irradiation from a ^137Cesium source (day 0). Starting three days before irradiation, animals received daily 4.5 mg per kg of CCompound1 via intraperitoneal injection; this treatment also was provided on day 0 and once daily for three days subsequent to irradiation. In another group, mice were injected only with physiological saline. The subsequent procedure has been reported in Vas, V., Fajka-Boja, R., Ion, G. A., Dudics, V., Monostori, E. and Uher, F., “Biphasic effect of recombinant Galectin-1 on the growth and death of early hematopoietic cells,” Stem Cells, 23, 279-287 (2005). Briefly, bone marrow was flushed from the femurs with Iscove's modified Dulbecco's medium (Gibco BRL, Gaithersburg, Md., USA), and after standard erythrocyte lysis, nucleated cells were counted using a hemocytometer. […] To measure the formation of the granulocyte-macrophage colony-forming units (CFU-GM), a semisolid colony-forming cell assay was used. Nucleated bone marrow cells (isolated on the days as indicated above) were plated in 35-mm Petri dishes (Costar, Cambridge, Mass., USA) in Iscove's modified Dulbecco's medium supplemented with 1% methylcellulose, 30% horse serum (Gibco), 10% WEHI-3B conditioned medium as a source of growth factors, 4 mM L-glutamine, 0.25 mM a-thioglycerol (Gibco), 1% deionized bovine serum albumine (Sigma), and antibiotics (Gibco). Cells were cultured at 37° C. in 5% CO2/95% air atmosphere and colonies were counted on day 7 in the same dish. Colonies containing at least 50 cells were counted which is a generally accepted value in the literature. Each value represents the mean±st. dev. of 9 samples (3 parallel dishes from each animal).

[4] = day 6 after 900 cGy irradiation and bone marrow transplantation
[5] = day 14 after 900 cGy irradiation and bone marrow transplantation
[6] = day 28 after 900 cGy irradiation and bone marrow transplantation
[7] = day 42 after 900 cGy irradiation and bone marrow transplantation
[8] = day 3 after 250 cGy irradiation
[9] = day 6 after 250 cGy irradiation
[10] = day 10 after 250 cGy irradiation

Compound: Cc1c(OCC(O)C[N+](C)(C)C)cc2c(=O)c3ccccc3sc2c1C.[Cl-] (stereo not drawn) [CCcompound1, [3-(3,4-Dimethyl-9-oxo-9H-thioxanthen-2-yloxy)-2-hydroxypropyl]trimethyl-ammonium chloride]
- CFU-GM per femur [1, 4]: 134.9
- CFU-GM/10^5 nucleated BM cells [1, 4]: 44.8 ± 5.1
- level of bone marrow re-population in the femur, treated versus untreated animals ([1]; day 6 following transplantation): about 5.3 fold
- CFU-GM per femur [1, 5]: 650.4
- CFU-GM/10^5 nucleated BM cells [1, 5]: 81.2 ± 5.3
- level of bone marrow re-population in the femur, treated versus untreated animals ([1]; day 14 following transplantation): ~2.9 fold
- CFU-GM per femur [1, 6]: 1,286.4
- CFU-GM/10^5 nucleated BM cells [1, 6]: 125.5 ± 9.1
- CFU-GM per femur [1, 7]: 992.4
- CFU-GM/10^5 nucleated BM cells [1, 7]: 71.5 ± 5.3
- solubility in water [2]: soluble in water
- CFU-GM per femur [3, 8]: 508
- CFU-GM/10^5 nucleated BM cells [3, 8]: 87.8 ± 9.0
- CFU-GM per femur [3, 9]: 713
- CFU-GM/10^5 nucleated BM cells [3, 9]: 92.3 ± 7.2
- CFU-GM per femur [3, 10]: 1,081
- CFU-GM/10^5 nucleated BM cells [3, 10]: 94.4 ± 8.1
- effect on number of nucleated bone marrow cells and CFU-GM ([3]; from the third day on after sublethal irradiation): enhanced the number of nucleated bone marrow cells and CFU-GM
